# “And” between values parts separate entries of the source, which are not always exact repeats. Identical values can stand only once.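 Method: 48-hour compound exposure of cells in 96-well plates, five concentrations, linear interpolation of endpoints. Here, GI50 denotes the concentration required for 50% inhibition of growth. TGI is the concentration that stops growth completely.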
# Tests used:
# Assay in all cases: inhibition of tumour cell growth, NCI panel, 48 h
# NCI-H226 lung = tested on: NCI-H226 lung
# XF 498 CNS = tested on: XF 498 CNS
# SK-MEL-5 melanoma = tested on: SK-MEL-5 melanoma
# OVCAR-3 ovarian = tested on: OVCAR-3 ovarian
# UACC-62 melanoma = tested on: UACC-62 melanoma
# A498 renal = tested on: A498 renal
# MALME-3M melanoma = tested on: MALME-3M melanoma
# TK-10 renal = tested on: TK-10 renal
# SF-295 CNS = tested on: SF-295 CNS
# COLO 205 colon = tested on: COLO 205 colon
# M14 melanoma = tested on: M14 melanoma
# ACHN renal = tested on: ACHN renal
# HCC-2998 colon = tested on: HCC-2998 colon
# KM12 colon = tested on: KM12 colon
# DLD-1 colon = tested on: DLD-1 colon
# CAKI-1 renal = tested on: CAKI-1 renal
# SF-268 CNS = tested on: SF-268 CNS
# LOX IMVI melanoma = tested on: LOX IMVI melanoma
# UACC-257 melanoma = tested on: UACC-257 melanoma
# SNB-19 CNS = tested on: SNB-19 CNS
# K-562 leukemia = tested on: K-562 leukemia
# U251 CNS = tested on: U251 CNS
# EKVX NSCLC = tested on: EKVX NSCLC
# SNB-75 CNS = tested on: SNB-75 CNS
# HCT-15 colon = tested on: HCT-15 colon
# SNB-78 CNS = tested on: SNB-78 CNS
# KM20L2 colon = tested on: KM20L2 colon
# UO-31 renal = tested on: UO-31 renal
# SN12C renal = tested on: SN12C renal
# IGROV1 ovarian = tested on: IGROV1 ovarian
# SK-MEL-2 melanoma = tested on: SK-MEL-2 melanoma
# HL-60(TB) leukemia = tested on: HL-60(TB) leukemia
# SW-620 colon = tested on: SW-620 colon
# SK-MEL-28 melanoma = tested on: SK-MEL-28 melanoma
# NCI-H522 lung = tested on: NCI-H522 lung
# DMS 273 small cell lung = tested on: DMS 273 small cell lung
# HOP-18 NSCLC = tested on: HOP-18 NSCLC
# A549 NSCLC = tested on: A549 NSCLC
# M19-MEL melanoma = tested on: M19-MEL melanoma
# OVCAR-8 ovarian = tested on: OVCAR-8 ovarian
# LXFL 529 NSCLC = tested on: LXFL 529 NSCLC
# SF-539 CNS = tested on: SF-539 CNS
# HOP-92 NSCLC = tested on: HOP-92 NSCLC
# NCI-H23 lung = tested on: NCI-H23 lung
# HOP-62 NSCLC = tested on: HOP-62 NSCLC
# CCRF-CEM leukemia = tested on: CCRF-CEM leukemia
# OVCAR-4 ovarian = tested on: OVCAR-4 ovarian
# 786-0 renal = tested on: 786-0 renal
# DMS 114 small cell lung = tested on: DMS 114 small cell lung
# MOLT-4 leukemia = tested on: MOLT-4 leukemia
# NCI-H460 lung = tested on: NCI-H460 lung
# OVCAR-5 ovarian = tested on: OVCAR-5 ovarian
# SK-OV-3 ovarian = tested on: SK-OV-3 ovarian
# RPMI-8226 leukemia = tested on: RPMI-8226 leukemia
# HT29 colon = tested on: HT29 colon
# RXF-631 renal = tested on: RXF-631 renal
# HCT-116 colon = tested on: HCT-116 colon
# RXF 393 renal = tested on: RXF 393 renal
# SR leukemia = tested on: SR leukemia
smiles,measurement,setting,value
Cc1c(C(=O)/C=C/C=C/c2ccccc2)[n+](=O)c2ccccc2n1[O-],TGI,NCI-H226 lung,> 100 µM
same,TGI,XF 498 CNS,95.3 µM
same,TGI,SK-MEL-5 melanoma,44.4 µM
same,TGI,OVCAR-3 ovarian,83.3 µM
same,TGI,UACC-62 melanoma,30.2 µM
same,TGI,A498 renal,> 100 µM
same,TGI,MALME-3M melanoma,66.8 µM
same,TGI,TK-10 renal,> 100 µM
same,TGI,SF-295 CNS,> 100 µM
same,TGI,COLO 205 colon,> 100 µM
same,TGI,M14 melanoma,45.9 µM
same,TGI,ACHN renal,60.8 µM
same,TGI,HCC-2998 colon,36.7 µM
same,TGI,KM12 colon,43.7 µM
same,TGI,DLD-1 colon,29 µM
same,TGI,CAKI-1 renal,> 100 µM
same,TGI,SF-268 CNS,> 100 µM
same,TGI,LOX IMVI melanoma,> 100 µM
same,TGI,UACC-257 melanoma,84.6 µM
same,TGI,SNB-19 CNS,> 100 µM
same,TGI,K-562 leukemia,> 100 µM
same,TGI,U251 CNS,> 100 µM
same,TGI,EKVX NSCLC,> 100 µM
same,TGI,SNB-75 CNS,> 100 µM
same,TGI,HCT-15 colon,36.9 µM
same,TGI,SNB-78 CNS,> 100 µM
same,TGI,KM20L2 colon,> 100 µM
same,TGI,UO-31 renal,> 100 µM
same,TGI,SN12C renal,73.2 µM
same,TGI,IGROV1 ovarian,65.5 µM
same,TGI,SK-MEL-2 melanoma,91.3 µM
same,TGI,HL-60(TB) leukemia,> 100 µM
same,TGI,SW-620 colon,> 100 µM
same,TGI,SK-MEL-28 melanoma,54.6 µM
same,TGI,NCI-H522 lung,32 µM
same,TGI,DMS 273 small cell lung,> 100 µM
same,TGI,HOP-18 NSCLC,> 100 µM
same,TGI,A549 NSCLC,82.3 µM
same,TGI,M19-MEL melanoma,> 100 µM
same,TGI,OVCAR-8 ovarian,> 100 µM
same,TGI,LXFL 529 NSCLC,51.2 µM
same,TGI,SF-539 CNS,> 100 µM
same,TGI,HOP-92 NSCLC,89.1 µM
same,TGI,NCI-H23 lung,51.4 µM
same,TGI,HOP-62 NSCLC,54.5 µM
same,TGI,CCRF-CEM leukemia,> 100 µM
same,TGI,OVCAR-4 ovarian,> 100 µM
same,TGI,786-0 renal,52.7 µM
same,TGI,DMS 114 small cell lung,> 100 µM
same,TGI,MOLT-4 leukemia,> 100 µM
same,TGI,NCI-H460 lung,61.5 µM
same,TGI,OVCAR-5 ovarian,> 100 µM
same,TGI,SK-OV-3 ovarian,> 100 µM
COC(=O)CCC12CCC(=O)C1[C@@H](C(=O)OC)C[C@H]2C(=O)OC (stereo not given in full),TGI,NCI-H226 lung,> 100 µM
same,TGI,XF 498 CNS,> 100 µM
same,TGI,SK-MEL-5 melanoma,> 100 µM
same,TGI,OVCAR-3 ovarian,> 100 µM
same,TGI,UACC-62 melanoma,> 100 µM
same,TGI,RPMI-8226 leukemia,> 100 µM
same,TGI,A498 renal,> 100 µM
same,TGI,MALME-3M melanoma,> 100 µM
same,TGI,TK-10 renal,> 100 µM
same,TGI,SF-295 CNS,> 100 µM
same,TGI,COLO 205 colon,> 100 µM
same,TGI,M14 melanoma,> 100 µM
same,TGI,ACHN renal,> 100 µM
same,TGI,HCC-2998 colon,> 100 µM
same,TGI,KM12 colon,> 100 µM
same,TGI,DLD-1 colon,> 100 µM
same,TGI,CAKI-1 renal,> 100 µM
same,TGI,SF-268 CNS,> 100 µM
same,TGI,LOX IMVI melanoma,> 100 µM
same,TGI,UACC-257 melanoma,> 100 µM
same,TGI,SNB-19 CNS,> 100 µM
same,TGI,K-562 leukemia,> 100 µM
same,TGI,U251 CNS,> 100 µM
same,TGI,EKVX NSCLC,> 100 µM
same,TGI,SNB-75 CNS,> 100 µM
same,TGI,HCT-15 colon,> 100 µM
same,TGI,SNB-78 CNS,> 100 µM
same,TGI,KM20L2 colon,> 100 µM
same,TGI,UO-31 renal,> 100 µM
same,TGI,SN12C renal,> 100 µM
same,TGI,IGROV1 ovarian,> 100 µM
same,TGI,HT29 colon,> 100 µM
same,TGI,SK-MEL-2 melanoma,> 100 µM
same,TGI,HL-60(TB) leukemia,> 100 µM
same,TGI,SW-620 colon,> 100 µM
same,TGI,NCI-H522 lung,> 100 µM
same,TGI,DMS 273 small cell lung,> 100 µM
same,TGI,HOP-18 NSCLC,> 100 µM
same,TGI,A549 NSCLC,> 100 µM
same,TGI,M19-MEL melanoma,> 100 µM
same,TGI,OVCAR-8 ovarian,> 100 µM
same,TGI,LXFL 529 NSCLC,> 100 µM
same,TGI,SF-539 CNS,> 100 µM
same,TGI,NCI-H23 lung,> 100 µM
same,TGI,HOP-62 NSCLC,> 100 µM
same,TGI,CCRF-CEM leukemia,> 100 µM
same,TGI,OVCAR-4 ovarian,> 100 µM
same,TGI,786-0 renal,> 100 µM
same,TGI,DMS 114 small cell lung,> 100 µM
same,TGI,RXF-631 renal,> 100 µM
same,TGI,MOLT-4 leukemia,> 100 µM
same,TGI,NCI-H460 lung,> 100 µM
same,TGI,HCT-116 colon,> 100 µM
same,TGI,OVCAR-5 ovarian,> 100 µM
same,TGI,SK-OV-3 ovarian,> 100 µM
same,TGI,RXF 393 renal,> 100 µM
Clc1cccc(N2CCN(CCCN3CCc4c([nH]c5ccccc45)C3c3cccnc3)CC2)c1 (stereo not given),TGI,NCI-H226 lung,35.8 µM
same,GI50,SK-MEL-5 melanoma,6.79 µM
same,TGI,SK-MEL-5 melanoma,24.9 µM
same,GI50,OVCAR-3 ovarian,9.24 µM
same,TGI,OVCAR-3 ovarian,22.7 µM
same,GI50,SR leukemia,4.58 µM
same,TGI,SR leukemia,7.34 µM and 24.6 µM
same,TGI,A498 renal,27.2 µM
same,GI50,MALME-3M melanoma,5.78 µM
same,TGI,MALME-3M melanoma,8.97 µM and 21.6 µM
same,GI50,COLO 205 colon,5.42 µM
same,TGI,COLO 205 colon,21.9 µM
same,GI50,M14 melanoma,2.47 µM
same,TGI,M14 melanoma,4.96 µM and 5.78 µM
same,TGI,ACHN renal,31.3 µM
same,GI50,HCC-2998 colon,3.06 µM
same,TGI,HCC-2998 colon,11.9 µM
same,TGI,DLD-1 colon,27 µM
same,TGI,CAKI-1 renal,25.7 µM
same,TGI,LOX IMVI melanoma,37.9 µM
same,TGI,UACC-257 melanoma,12.1 µM
same,TGI,SNB-19 CNS,> 100 µM
same,GI50,K-562 leukemia,5.06 µM
same,TGI,K-562 leukemia,> 100 µM
same,TGI,U251 CNS,23.9 µM
same,TGI,EKVX NSCLC,35.1 µM
same,TGI,SNB-75 CNS,26.7 µM
same,TGI,HCT-15 colon,21.8 µM
same,GI50,SNB-78 CNS,2.88 µM
same,TGI,SNB-78 CNS,9.39 µM
same,TGI,KM20L2 colon,18.8 µM
same,TGI,UO-31 renal,18.5 µM
same,TGI,SN12C renal,30.3 µM
same,TGI,IGROV1 ovarian,> 100 µM
same,GI50,HT29 colon,3.18 µM
same,TGI,HT29 colon,14.2 µM
same,TGI,SK-MEL-2 melanoma,24.3 µM
same,GI50,HL-60(TB) leukemia,4.63 µM
same,TGI,HL-60(TB) leukemia,> 100 µM
same,TGI,SW-620 colon,38.1 µM
same,GI50,SK-MEL-28 melanoma,5.58 µM
same,TGI,SK-MEL-28 melanoma,20.4 µM
same,TGI,NCI-H522 lung,25.7 µM
same,GI50,DMS 273 small cell lung,12.6 µM
same,TGI,DMS 273 small cell lung,27.9 µM
same,TGI,HOP-18 NSCLC,36 µM
same,GI50,A549 NSCLC,16.1 µM
same,TGI,A549 NSCLC,36.9 µM
same,TGI,M19-MEL melanoma,23.4 µM
same,TGI,OVCAR-8 ovarian,26 µM
same,GI50,LXFL 529 NSCLC,11.3 µM
same,TGI,LXFL 529 NSCLC,24.4 µM
same,GI50,SF-539 CNS,11.7 µM
same,TGI,SF-539 CNS,32.3 µM
same,GI50,HOP-92 NSCLC,12.8 µM
same,TGI,HOP-92 NSCLC,31.3 µM
same,TGI,NCI-H23 lung,27 µM
same,TGI,HOP-62 NSCLC,32.7 µM
same,GI50,CCRF-CEM leukemia,11.9 µM
same,TGI,CCRF-CEM leukemia,> 100 µM
same,TGI,OVCAR-4 ovarian,25.1 µM
same,GI50,786-0 renal,7.08 µM
same,TGI,786-0 renal,20.2 µM
same,GI50,RXF-631 renal,19.5 µM
same,TGI,RXF-631 renal,> 100 µM
same,GI50,MOLT-4 leukemia,5.33 µM
same,TGI,MOLT-4 leukemia,39.8 µM
same,GI50,NCI-H460 lung,7.85 µM
same,TGI,NCI-H460 lung,23.7 µM
same,GI50,HCT-116 colon,6.97 µM
same,TGI,HCT-116 colon,24.9 µM
same,GI50,OVCAR-5 ovarian,8.66 µM
same,TGI,OVCAR-5 ovarian,23.9 µM
same,TGI,SK-OV-3 ovarian,32.2 µM
same,GI50,RXF 393 renal,11.5 µM
same,TGI,RXF 393 renal,31 µM
